Results reported in PMC12748989 (Nature Communications, 2025).

How the values were obtained:
PBMC = conditions: 12.5 µM

SMILES	Average (percentage cell inhibition), Dmastoparan MDA-MB231 12.5uM (MDA-MB-231 cells)	Average (percentage cell inhibition), Mastoparan PBMC (PBMC)
CC[C@H](C)[C@H](N)C(=O)N[C@@H](CC(N)=O)C(=O)N[C@@H](CC(C)C)C(=O)N[C@@H](CCCCN)C(=O)N[C@@H](C)C(=O)N[C@@H](Cc1ccc(O)cc1)C(=O)N[C@@H](C)C(=O)N[C@@H](C)C(=O)N[C@@H](CC(C)C)C(=O)N[C@@H](C)C(=O)N[C@@H](CCCCN)C(=O)N[C@@H](CCCCN)C(=O)N[C@H](C(=O)N[C@@H](CC(C)C)C(N)=O)[C@@H](C)CC [Y6]	22.8055%	-4.904%
CC[C@H](C)[C@H](N)C(=O)N[C@@H](CC(N)=O)C(=O)N[C@@H](CC(C)C)C(=O)N[C@@H](CCCCN)C(=O)N[C@@H](C)C(=O)N[C@@H](CC(C)C)C(=O)N[C@@H](C)C(=O)N[C@@H](C)C(=O)N[C@@H](CC(C)C)C(=O)N[C@@H](C)C(=O)N[C@@H](CCCNC(=N)N)C(=O)N[C@@H](CCCCN)C(=O)N[C@H](C(=O)N[C@@H](CC(C)C)C(N)=O)[C@@H](C)CC [R11]	37.1061%	5.503%
CC[C@H](C)[C@H](N)C(=O)N[C@@H](CC(N)=O)C(=O)N[C@@H](CC(C)C)C(=O)N[C@@H](CCCCN)C(=O)N[C@@H](C)C(=O)N[C@@H](CC(C)C)C(=O)N[C@@H](C)C(=O)N[C@@H](Cc1ccc(O)cc1)C(=O)N[C@@H](CC(C)C)C(=O)N[C@@H](C)C(=O)N[C@@H](CCCCN)C(=O)N[C@@H](CCCCN)C(=O)N[C@H](C(=O)N[C@@H](CC(C)C)C(N)=O)[C@@H](C)CC [Y8]	50.1841%	22.0038%
CC[C@H](C)[C@H](N)C(=O)N[C@@H](CC(N)=O)C(=O)N[C@@H](CC(C)C)C(=O)N[C@@H](CCCCN)C(=O)N[C@@H](C)C(=O)N[C@@H](CC(C)C)C(=O)N[C@@H](C)C(=O)N[C@@H](C)C(=O)N[C@@H](CC(C)C)C(=O)N1CCC[C@H]1C(=O)N[C@@H](CCCCN)C(=O)N[C@@H](CCCCN)C(=O)N[C@H](C(=O)N[C@@H](CC(C)C)C(N)=O)[C@@H](C)CC [P10]	28.7019%	-7.837%
CC[C@H](C)[C@H](N)C(=O)N[C@@H](CC(N)=O)C(=O)N[C@@H](CC(C)C)C(=O)N[C@@H](CCCCN)C(=O)N[C@@H](C)C(=O)N[C@@H](CC(C)C)C(=O)N[C@H](C(=O)N[C@@H](C)C(=O)N[C@@H](CC(C)C)C(=O)N[C@@H](C)C(=O)N[C@@H](CCCCN)C(=O)N[C@@H](CCCCN)C(=O)N[C@H](C(=O)N[C@@H](CC(C)C)C(N)=O)[C@@H](C)CC)C(C)C [V7]	57.1739%	22.1422%
CC[C@H](C)[C@H](N)C(=O)N[C@@H](CC(N)=O)C(=O)N[C@@H](CC(C)C)C(=O)N[C@@H](CCCCN)C(=O)N[C@@H](C)C(=O)N[C@@H](CC(C)C)C(=O)N[C@@H](C)C(=O)N[C@@H](C)C(=O)N[C@@H](CC(C)C)C(=O)N[C@@H](C)C(=O)N[C@@H](Cc1c[nH]cn1)C(=O)N[C@@H](CCCCN)C(=O)N[C@H](C(=O)N[C@@H](CC(C)C)C(N)=O)[C@@H](C)CC [H11]	27.1728%	-0.6179%
CC[C@H](C)[C@H](N)C(=O)N[C@@H](CC(N)=O)C(=O)N[C@@H](CC(C)C)C(=O)N[C@@H](CCCCN)C(=O)N[C@@H](C)C(=O)N[C@@H](CC(C)C)C(=O)N[C@@H](C)C(=O)N[C@@H](C)C(=O)N[C@@H](CC(C)C)C(=O)N[C@@H](C)C(=O)N[C@@H](CCCCN)C(=O)N[C@@H](CCC(N)=O)C(=O)N[C@H](C(=O)N[C@@H](CC(C)C)C(N)=O)[C@@H](C)CC [Q12]	35.4495%	-3.934%
CC[C@H](C)[C@H](N)C(=O)N[C@@H](CC(N)=O)C(=O)N[C@@H](CC(C)C)C(=O)N[C@@H](CCCCN)C(=O)N[C@@H](C)C(=O)N[C@@H](CO)C(=O)N[C@@H](C)C(=O)N[C@@H](C)C(=O)N[C@@H](CC(C)C)C(=O)N[C@@H](C)C(=O)N[C@@H](CCCCN)C(=O)N[C@@H](CCCCN)C(=O)N[C@H](C(=O)N[C@@H](CC(C)C)C(N)=O)[C@@H](C)CC [S6]	29.7699%	-17.608%
CC[C@H](C)[C@H](N)C(=O)N[C@@H](CC(N)=O)C(=O)N[C@@H](CC(C)C)C(=O)N[C@@H](CCCCN)C(=O)N[C@@H](C)C(=O)N[C@@H](CC(C)C)C(=O)N[C@@H](C)C(=O)N[C@@H](C)C(=O)N[C@@H](CC(C)C)C(=O)N[C@@H](C)C(=O)N[C@@H](CCCCN)C(=O)N[C@@H](CCCCN)C(=O)N[C@@H](C)C(=O)N[C@@H](CC(C)C)C(N)=O [A13]	24.196%	5.573%
CC[C@H](C)[C@H](N)C(=O)N[C@@H](Cc1c[nH]cn1)C(=O)N[C@@H](CC(C)C)C(=O)N[C@@H](CCCCN)C(=O)N[C@@H](C)C(=O)N[C@@H](CC(C)C)C(=O)N[C@@H](C)C(=O)N[C@@H](C)C(=O)N[C@@H](CC(C)C)C(=O)N[C@@H](C)C(=O)N[C@@H](CCCCN)C(=O)N[C@@H](CCCCN)C(=O)N[C@H](C(=O)N[C@@H](CC(C)C)C(N)=O)[C@@H](C)CC [H2]	35.1529%	5.675%
CC[C@H](C)[C@H](N)C(=O)N[C@@H](CC(N)=O)C(=O)N[C@@H](CC(C)C)C(=O)N[C@H](C(=O)N[C@@H](C)C(=O)N[C@@H](CC(C)C)C(=O)N[C@@H](C)C(=O)N[C@@H](C)C(=O)N[C@@H](CC(C)C)C(=O)N[C@@H](C)C(=O)N[C@@H](CCCCN)C(=O)N[C@@H](CCCCN)C(=O)N[C@H](C(=O)N[C@@H](CC(C)C)C(N)=O)[C@@H](C)CC)[C@@H](C)O [T4]	29.8701%	12.9948%
CC[C@H](C)[C@H](N)C(=O)N[C@@H](CC(N)=O)C(=O)N[C@@H](CC(C)C)C(=O)N[C@@H](CCCCN)C(=O)N[C@@H](C)C(=O)N[C@@H](CC(C)C)C(=O)N[C@@H](C)C(=O)N[C@@H](C)C(=O)N[C@@H](CC(C)C)C(=O)N[C@@H](C)C(=O)N[C@@H](CCCCN)C(=O)N[C@@H](CCCCN)C(=O)N[C@H](C(=O)N[C@H](C(N)=O)[C@@H](C)O)[C@@H](C)CC [T14]	36.2451%	6.663%
CC[C@H](C)[C@H](N)C(=O)N[C@@H](CC(N)=O)C(=O)N[C@@H](CC(C)C)C(=O)N[C@@H](CCCCN)C(=O)N[C@@H](C)C(=O)N[C@@H](CC(C)C)C(=O)N[C@H](C(=O)N[C@@H](C)C(=O)N[C@@H](CC(C)C)C(=O)N[C@@H](C)C(=O)N[C@@H](CCCCN)C(=O)N[C@@H](CCCCN)C(=O)N[C@H](C(=O)N[C@@H](CC(C)C)C(N)=O)[C@@H](C)CC)[C@@H](C)CC [I7]	72.6071%	39.466%
CC[C@H](C)[C@H](N)C(=O)N[C@@H](CC(N)=O)C(=O)N[C@@H](CC(C)C)C(=O)N[C@@H](CCCCN)C(=O)N[C@@H](C)C(=O)N[C@@H](CC(C)C)C(=O)N[C@@H](Cc1c[nH]c2ccccc12)C(=O)N[C@@H](C)C(=O)N[C@@H](CC(C)C)C(=O)N[C@@H](C)C(=O)N[C@@H](CCCCN)C(=O)N[C@@H](CCCCN)C(=O)N[C@H](C(=O)N[C@@H](CC(C)C)C(N)=O)[C@@H](C)CC [W7]	92.6725%	70.534%
CC[C@H](C)[C@H](N)C(=O)N[C@@H](CC(N)=O)C(=O)N[C@@H](CC(C)C)C(=O)N[C@@H](CCCCN)C(=O)N[C@@H](C)C(=O)N[C@@H](CC(C)C)C(=O)N[C@@H](C)C(=O)N[C@@H](C)C(=O)N[C@@H](CC(C)C)C(=O)N[C@@H](C)C(=O)N[C@@H](CCCCN)C(=O)N[C@@H](CO)C(=O)N[C@H](C(=O)N[C@@H](CC(C)C)C(N)=O)[C@@H](C)CC [S12]	38.966%	1.96%
CC[C@H](C)[C@H](N)C(=O)N[C@@H](CC(N)=O)C(=O)N[C@@H](CC(C)C)C(=O)N[C@@H](CCCCN)C(=O)N[C@@H](C)C(=O)N[C@@H](CC(C)C)C(=O)N[C@@H](C)C(=O)N[C@@H](C)C(=O)N[C@@H](CC(C)C)C(=O)N[C@@H](Cc1c[nH]cn1)C(=O)N[C@@H](CCCCN)C(=O)N[C@@H](CCCCN)C(=O)N[C@H](C(=O)N[C@@H](CC(C)C)C(N)=O)[C@@H](C)CC [H10]	-5.968%	-10.8779%
CC[C@H](C)[C@H](N)C(=O)N[C@@H](CC(N)=O)C(=O)N[C@@H](CC(C)C)C(=O)N[C@@H](CCCCN)C(=O)N[C@@H](C)C(=O)N[C@@H](CC(C)C)C(=O)N[C@@H](C)C(=O)N[C@@H](CC(C)C)C(=O)N[C@@H](CC(C)C)C(=O)N[C@@H](C)C(=O)N[C@@H](CCCCN)C(=O)N[C@@H](CCCCN)C(=O)N[C@H](C(=O)N[C@@H](CC(C)C)C(N)=O)[C@@H](C)CC [L8]	38.4504%	16.9354%
CC[C@H](C)[C@H](N)C(=O)N[C@@H](CC(N)=O)C(=O)N[C@@H](CC(C)C)C(=O)N[C@@H](CCCCN)C(=O)N[C@@H](C)C(=O)N[C@@H](CC(C)C)C(=O)NCC(=O)N[C@@H](C)C(=O)N[C@@H](CC(C)C)C(=O)N[C@@H](C)C(=O)N[C@@H](CCCCN)C(=O)N[C@@H](CCCCN)C(=O)N[C@H](C(=O)N[C@@H](CC(C)C)C(N)=O)[C@@H](C)CC [G7]	49.0864%	11.7718%
CC[C@H](C)[C@H](NC(=O)[C@H](CCCCN)NC(=O)[C@H](CCCCN)NC(=O)[C@H](C)NC(=O)[C@H](CC(C)C)NC(=O)[C@H](C)NC(=O)[C@H](C)NC(=O)[C@H](CC(C)C)NC(=O)[C@H](C)NC(=O)[C@H](CCCCN)NC(=O)[C@H](CC(C)C)NC(=O)[C@H](CC(N)=O)NC(=O)[C@@H](N)CC(N)=O)C(=O)N[C@@H](CC(C)C)C(N)=O [N1]	25.1532%	8.003%
